Laboratory results reported in patent publication US12624034B2, “Non-covalent modifiers of AKT1 and uses thereof” (Terremoto Biosciences, Inc., priority 2023, dated 2026).
pIC50: −log10 of the molar value. Like-named read-outs stand apart in the source and are kept apart here.

Assays:
AKT1 E17K = biological target: T1, AKT1 E17K (Homo sapiens, UniProt P31749, E17K); assay: Live cell AKT1 E17K target engagement by NanoBRET competitive probe displacement in HEK293 cells; assay type: binding; settings: 2 h at 37° C.
T1 construct: expressed in transfected cells; host or cells: HEK293
T1 sequence (P31749 whole entry E17K): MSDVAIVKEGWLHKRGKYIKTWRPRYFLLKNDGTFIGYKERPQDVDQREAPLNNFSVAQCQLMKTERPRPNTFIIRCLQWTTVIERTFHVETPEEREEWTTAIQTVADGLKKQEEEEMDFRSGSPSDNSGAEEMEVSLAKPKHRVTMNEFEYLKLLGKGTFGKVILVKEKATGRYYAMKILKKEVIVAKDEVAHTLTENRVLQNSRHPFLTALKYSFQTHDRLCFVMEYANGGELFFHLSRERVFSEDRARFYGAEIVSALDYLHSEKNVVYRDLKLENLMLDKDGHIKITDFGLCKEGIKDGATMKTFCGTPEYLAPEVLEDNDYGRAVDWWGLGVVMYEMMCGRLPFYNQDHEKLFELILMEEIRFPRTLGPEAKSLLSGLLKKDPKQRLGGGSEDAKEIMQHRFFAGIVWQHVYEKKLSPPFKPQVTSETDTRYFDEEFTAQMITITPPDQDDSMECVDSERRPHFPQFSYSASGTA
Procedure, shortened: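 Tracer displacement measured in live HEK293 cells carrying NanoLuciferase-fused kinase. Compound competes with a fluorescently labelled ATP-competitive tracer used near its EC50 over 2 h at 37° C, and IC50 values come from Hill fitting of the 600/460 nm BRET signal.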

[1] = test system: LAPC4 prostate cancer cells, which express the AKT1 E17K allele; assay: Antiproliferative effects in LAPC4 cells (CellTiter Glo, 72 h); assay type: cell-based; settings: read-out: LAPC4 proliferation IC50
Procedure, shortened: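 Growth inhibition is gauged by intracellular ATP content, measured with CellTiter Glo 72 h after compound addition to 1,000 seeded cells per well. IC50 derives from a Hill equation fit.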

AKT2 = biological target: T2, AKT2 (Homo sapiens, UniProt P31751); assay: Live cell AKT2 target engagement by NanoBRET competitive probe displacement in HEK293 cells; assay type: binding; settings: 2 h at 37° C., read-out: AKT2 IC50
T2 construct: expressed in transfected cells; host or cells: HEK293
T2 sequence (P31751 whole entry): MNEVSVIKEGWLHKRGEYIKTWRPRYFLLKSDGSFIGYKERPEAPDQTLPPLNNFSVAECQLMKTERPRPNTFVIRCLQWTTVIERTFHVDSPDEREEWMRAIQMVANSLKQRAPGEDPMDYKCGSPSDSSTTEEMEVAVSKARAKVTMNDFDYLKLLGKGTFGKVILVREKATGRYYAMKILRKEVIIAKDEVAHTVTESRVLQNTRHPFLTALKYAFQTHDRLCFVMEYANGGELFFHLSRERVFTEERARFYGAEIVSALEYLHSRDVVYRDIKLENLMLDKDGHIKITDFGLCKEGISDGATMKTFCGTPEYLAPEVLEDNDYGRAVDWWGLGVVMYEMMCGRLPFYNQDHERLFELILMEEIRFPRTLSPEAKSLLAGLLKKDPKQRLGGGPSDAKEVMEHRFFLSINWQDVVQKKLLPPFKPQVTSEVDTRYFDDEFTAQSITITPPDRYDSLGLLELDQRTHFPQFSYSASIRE

AKT1 WT = biological target: T3, AKT1 WT (Homo sapiens, UniProt P31749); assay: Live cell AKT1 WT target engagement by NanoBRET competitive probe displacement in HEK293 cells; assay type: binding; settings: 2 h at 37° C., read-out: AKT1 WT IC50
T3 construct: expressed in transfected cells; host or cells: HEK293
T3 sequence (P31749 whole entry): as the sequence (P31749 whole entry E17K) above, with K17E counted along it

[2] = NanoBRET live cell target engagement, HEK293 cells
[3] = NanoBRET competitive probe displacement, live HEK293 cells

| SMILES | pIC50 (AKT1 E17K; [2]) | pIC50 ([1]; Homo sapiens, LAPC4, 72 h) | pIC50 (AKT2; [2]) | pIC50 (AKT1 WT; [2]) | pIC50 [1] | pIC50 (AKT1 E17K; [3]) | pIC50 (AKT2; [3]) | pIC50 (AKT1 WT; [3]) |
| --- | --- | --- | --- | --- | --- | --- | --- | --- |
| Cc1ncc(F)cc1C(=O)N[C@H]1CCc2cc(-n3c(-c4cccnc4N)nc4ccc(-n5nccn5)nc43)ccc21 [Compound 382] | 7.03 | 5.38 | 6.26 | 7.88 |  |  |  |  |
| Nc1ncccc1-c1nc2ccc(-n3cccn3)nc2n1-c1ccc2c(c1)CC[C@@H]2n1cnnc1CC1CC1 [Compound 384] | 7.03 | 5.90 | 6.28 | 7.88 |  |  |  |  |
| Nc1ncccc1-c1nc2ccc(-n3cccn3)nc2n1-c1ccc2c(c1)CC[C@@H]2NC1CCN(c2ccccn2)C1 (some centres unmarked) [Compound 387] | 6.42 | 5.35 | 6.45 | 8.02 |  |  |  |  |
| Nc1ncccc1-c1nc2ccc(-n3cccn3)nc2n1-c1ccc2c(c1)CC[C@@H]2NC1CCN(c2ccccn2)C1 (some centres unmarked) [Compound 388] | 6.61 |  | 6.17 | 7.54 | 5.50 |  |  |  |
| Cn1nc(C(=O)N[C@H]2CCc3cc(-n4c(-c5cccnc5N)nc5ccc(-n6cccn6)nc54)ccc32)c2c1OCC2 [Compound 390] | 7.50 | < 5.00 | 6.98 | 7.80 |  |  |  |  |
| Nc1ncccc1-c1nc2ccc(-c3ccccc3)nc2n1-c1ccc2c(c1)CC[C@@H]2NC1CCN(C(=O)C2CC2)CC1 [Compound 391] | 6.59 | 5.65 | 6.99 | 7.71 |  |  |  |  |
| Cc1nc(C(F)F)ccc1C(=O)N[C@H]1CCc2cc(-n3c(-c4cccnc4N)nc4ccc(-n5nccn5)nc43)ccc21 [Compound 392] | < 6.00 | < 5.00 | 5.26 | 7.38 |  |  |  |  |
| Nc1ncccc1-c1nc2ccc(-n3cccn3)nc2n1-c1ccc2c(c1)CC[C@@H]2NC1CCN(S(=O)(=O)C2CC2)CC1 [Compound 393] |  | < 5.00 |  |  |  | < 6.00 | 5.41 | 6.90 |
| CN(C)C(=O)N1CCC(N[C@H]2CCc3cc(-n4c(-c5cccnc5N)nc5ccc(-n6cccn6)nc54)ccc32)CC1 [Compound 394] |  | < 5.00 |  |  |  | < 6.00 | 5.83 | 7.00 |
| Nc1ncccc1-c1nc2ccc(-n3cccn3)nc2n1-c1ccc2c(c1)CC[C@@H]2NC(=O)c1cnns1 [Compound 399] |  | 5.56 |  |  |  | 6.75 | 6.18 | 7.82 |
| Cc1ccc(C(=O)N[C@H]2CCc3cc(-n4c(-c5ccccc5F)nc5ccc(-n6cccn6)nc54)ccc32)cn1 [Compound 401] |  | 5.38 |  |  |  | 6.97 | 5.56 | 7.96 |
| COc1cc(C(=O)N[C@H]2CCc3cc(-n4c(-c5ccccc5F)nc5ccc(-n6cccn6)nc54)ccc32)ccn1 [Compound 402] |  | 5.52 |  |  |  | 7.27 | 6.32 | 8.10 |
| COc1cc(C(=O)N[C@H]2CCc3cc(-n4c(-c5cccnc5N)nc5ccc(-n6nccn6)nc54)ccc32)cnn1 [Compound 426] |  | 5.82 |  |  |  | 7.23 | 6.44 | 8.50 |
| Nc1ncccc1-c1nc2ccc(-n3nccn3)nc2n1-c1ccc2c(c1)CC[C@@H]2NC(=O)c1cnc(C(F)F)s1 [Compound 427] |  | 5.77 |  |  |  | 7.00 | 5.97 | 8.02 |
| O=C(N[C@H]1CCc2cc(-n3c(-c4ccccc4)nc4ccc(-c5ccn(C6CC6)n5)nc43)ccc21)c1ccc(C(F)F)nc1 [Compound 432] |  | 5.46 |  |  |  | 6.84 | 5.84 | 7.84 |
| Nc1ncccc1-c1nc2ccc(-n3cccn3)nc2n1-c1ccc2c(c1)CC[C@@H]2NC1CN(c2ccccn2)C1 [Compound 439] |  | 5.42 |  |  |  | 6.18 | 6.10 | 7.82 |
| COc1ccn(-c2ccc3nc(-c4cccnc4N)n(-c4ccc5c(c4)CC[C@@H]5NC4CCN(C(=O)C5CC5)CC4)c3n2)n1 [Compound 440] |  | 5.28 |  |  |  | < 6.00 | 5.76 | 7.61 |
